Results on eight compounds are retold here after patent publication US20090203605A1, “Methods For Treating A Condition Characterized By Dysfunction In Protein Homeostasis” (THE SCRIPPS RESEARCH INSTITUTE, priority 2008, published 2009).

The target in this experiment is T1, L444P GC (Homo sapiens, UniProt P04062, L483P).
T1 construct: a L444P GC Gaucher fibroblast cell line (GM08760); host or cells: Gaucher patient-derived skin fibroblasts
T1 sequence (P04062 40-536 L483P): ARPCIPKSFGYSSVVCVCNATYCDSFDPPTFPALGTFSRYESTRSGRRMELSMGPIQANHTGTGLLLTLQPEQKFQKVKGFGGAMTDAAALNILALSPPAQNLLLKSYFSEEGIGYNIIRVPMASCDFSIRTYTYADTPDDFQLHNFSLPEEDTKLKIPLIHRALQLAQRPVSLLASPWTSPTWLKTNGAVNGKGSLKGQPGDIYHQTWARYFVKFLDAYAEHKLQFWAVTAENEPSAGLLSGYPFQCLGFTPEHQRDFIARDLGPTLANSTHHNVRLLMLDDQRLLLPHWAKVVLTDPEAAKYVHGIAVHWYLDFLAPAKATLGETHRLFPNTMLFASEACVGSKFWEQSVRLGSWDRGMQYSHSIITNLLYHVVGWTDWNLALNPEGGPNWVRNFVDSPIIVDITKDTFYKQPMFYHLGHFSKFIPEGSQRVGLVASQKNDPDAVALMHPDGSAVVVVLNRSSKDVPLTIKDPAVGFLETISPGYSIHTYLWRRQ
The experiment can be described thus: GC activity assay in L444P GC Gaucher patient-derived fibroblasts. To be noted: for effect on L444P GC activity: IP3R inhibitors (FIG. 33). The format is cell-based.

Take `COc1ccc(S(=O)(=O)N(CCO)c2ccccc2CN(C)C/C=C/c2ccc(Cl)cc2)cc1` [KN93]: the “effect on L444P GC activity” value is given as “None of the compounds enhanced L444P GC activity”.
Same read-out and setting: under `C1CCCC2CCCN3CCC(CCCCCCC4CCCN5CCC(CC1)OC45)OC23` (stereo not shown) [XeC] stands “None of the compounds enhanced L444P GC activity”; under `CCN(CC)CCCC(C)Nc1ccnc2cc(Cl)ccc12` (stereo not shown) [chloroquinine], “None of the compounds enhanced L444P GC activity”.
On to `CC(=O)N[C@@H](CSC(=O)[C@]1([C@@H](O)C(C)C)NC(=O)[C@H](C)[C@@H]1O)C(=O)O` [lactacystin], for which the “GC proteostasis regulator function” value (L444P GC cells) is given as “not a GC proteostasis regulator”.
Regarding `C=C[C@H]1C[N@@]2CC[C@H]1C[C@H]2[C@H](O)c1ccnc2ccc(OC)cc12` [quinine], the “effect on L444P GC activity” value was “None of the compounds enhanced L444P GC activity”.
In the case of `N.N.N.N.N.N.N.N.N.N.N.N.N.N.[Cl-].[Cl-].[Cl-].[Cl-].[Cl-].[Cl-].[O-2].[O-2].[Ru+3].[Ru+3].[Ru+4]` [ruthenium red], the “effect on L444P GC activity, intact cell GC enzyme assay” value (thermosensitive TRP channel modulators, 5-day incubation) is reported as “notably increased”.
For the compound `C/C=C(/C)C(=O)O[C@H]1C(C)=C2[C@H]([C@@H]1OC(=O)CCCCCCC)[C@@](C)(OC(C)=O)C[C@H](OC(=O)CCC)[C@@]1(O)[C@H]2OC(=O)[C@@]1(C)O` [thapsigargin], under “thapsigargin (FIG. 25)”, the “effect on L444P GC folding, trafficking and lysosomal activity” value was “does not enhance”. Further, where the note is “thapsigargin alone, 7-day incubation”, the “concentration above which L444P GC activity is decreased significantly” value is recorded as > 1 nM. Moreover, where the note is “varying concentrations co-applied with 10 μM diltiazem, 7 days”, the “effect on GC activity in L444P GC cells” value is on record as “dose-dependent decrease of GC activity”.
For `C[CH2][Hg][S]c1ccccc1C(=O)[O-].[Na+]` [thimerosal], the “effect on L444P GC activity” value is “None of the compounds enhanced L444P GC activity”.
